Toxic doses and inconclusive results are not listed.
Test system: BDF1 mice, M5076 sarcoma ip, median survival T/C
Test: NCI In Vivo Anticancer Drug Screen. Data for tumor model Sarcoma M5076 (intraperitoneal) in B6D2F1 (BDF1) mice
Conditions: endpoint: median survival time, higher = longer survival
Protocol: The antitumor activity of compounds was measured in mice bearing transplantable tumors. Survival or tumor size were measured and the results are expressed as the measurement made in the treated group (T) divided by the measurement made in the vehicle treated control group (C). The tumor model used in this assay is Sarcoma M5076 (intraperitoneal) in B6D2F1 (BDF1) mice

[1] = dose: 50.0 mg/kg/injection, schedule: Q04DX004 (ip), vehicle: saline with Tween-80
[2] = dose: 100.0 mg/kg/injection, schedule: Q04DX004 (ip), vehicle: saline with Tween-80
[3] = dose: 200.0 mg/kg/injection, schedule: Q04DX004 (ip), vehicle: saline with Tween-80
[4] = dose: 400.0 mg/kg/injection, schedule: Q04DX004 (ip), vehicle: saline with Tween-80

SMILES: CCOC(=O)C(N)CSC(=O)NC (stereo not drawn)
- T/C (dose: 75.0 mg/kg/injection, schedule: Q04DX004 (ip), vehicle: saline): 103 % of control
- T/C (dose: 150.0 mg/kg/injection, schedule: Q04DX004 (ip), vehicle: saline): 109 % of control
- T/C (dose: 300.0 mg/kg/injection, schedule: Q04DX004 (ip), vehicle: saline): 110 % of control
- T/C (dose: 600.0 mg/kg/injection, schedule: Q04DX004 (ip), vehicle: saline): 178 % of control

SMILES: Cc1ccc2c(c1)n([O-])c1cc(Cl)ccc1[n+]2=O
- T/C (dose: 25.0 mg/kg/injection, schedule: Q04DX004 (ip), vehicle: saline with Tween-80): 109 % of control
- T/C [1]: 112 % of control
- T/C [2]: 110 % of control
- T/C [3]: 110 % of control
- T/C [4]: 115 % of control

SMILES: Nc1ccn(C2OC(CO)C(O)C2O)c(=O)n1 (stereo not drawn)
- T/C (dose: 125.0 mg/kg/injection, schedule: Q04DX005 (ip), vehicle: saline): 164 % of control
- T/C (dose: 250.0 mg/kg/injection, schedule: Q04DX005 (ip), vehicle: saline): 184 % of control
- T/C (dose: 500.0 mg/kg/injection, schedule: Q04DX005 (ip), vehicle: saline): 185 % of control
- T/C (dose: 1000.0 mg/kg/injection, schedule: Q04DX005 (ip), vehicle: saline): 199 % of control

SMILES: CN=C(N)c1ccc(N=C(N)c2ccc(C(N)=Nc3ccc(C(N)=NC)cc3)cc2)cc1
- T/C (dose: 1.3 mg/kg/injection, schedule: Q01DX005 (iv), vehicle: saline): 98 % of control
- T/C (dose: 1.3 mg/kg/injection, schedule: Q01DX005 (iv), vehicle: water): 100 % of control
- T/C (dose: 3.6 mg/kg/injection, schedule: Q01DX005 (iv), vehicle: saline): 104 % of control
- T/C (dose: 3.6 mg/kg/injection, schedule: Q01DX005 (iv), vehicle: water): 100 % of control
- T/C (dose: 3.75 mg/kg/injection, schedule: Q01DX005 (iv), vehicle: water): 99 % of control
- T/C (dose: 3.75 mg/kg/injection, schedule: Q01DX005 (sc), vehicle: water): 101 % of control
- T/C (dose: 6.0 mg/kg/injection, schedule: Q01DX005 (iv), vehicle: saline): 104 % of control
- T/C (dose: 6.0 mg/kg/injection, schedule: Q01DX005 (iv), vehicle: water): 99 % of control
- T/C (dose: 7.5 mg/kg/injection, schedule: Q01DX005 (iv), vehicle: water): 108 % of control
- T/C (dose: 15.0 mg/kg/injection, schedule: Q01DX005 (ip), vehicle: water): 165 % of control
- T/C (dose: 15.0 mg/kg/injection, schedule: Q01DX005 (sc), vehicle: water): 120 % of control
- T/C (dose: 18.0 mg/kg/injection, schedule: Q01DX005 (ip), vehicle: saline): 164 % of control
- T/C (dose: 18.0 mg/kg/injection, schedule: Q01DX005 (ip), vehicle: water): 164 % of control
- T/C (dose: 30.0 mg/kg/injection, schedule: Q01DX005 (ip), vehicle: saline): 180 % of control
- T/C (dose: 30.0 mg/kg/injection, schedule: Q01DX005 (ip), vehicle: water): 172 % of control

SMILES: COC1N(C2CC(O)C(CO)O2)C(=O)NC(=O)C1(F)Br (stereo not drawn)
- T/C (dose: 25.0 mg/kg/injection, schedule: Q04DX004 (ip), vehicle: saline): 110 % of control
- T/C (dose: 50.0 mg/kg/injection, schedule: Q04DX004 (ip), vehicle: saline): 115 % of control
- T/C (dose: 100.0 mg/kg/injection, schedule: Q04DX004 (ip), vehicle: saline): 116 % of control
- T/C (dose: 400.0 mg/kg/injection, schedule: Q04DX004 (ip), vehicle: saline): 124 % of control

SMILES: C=C1C(=O)O[C@H]2C1[C@H](OC(=O)/C(C)=C\C)CC(=C)[C@@H]1C(=O)[C@H]3O[C@@]3(C)[C@@]12O (stereo partly drawn)
- T/C (dose: 0.5 mg/kg/injection, schedule: Q01DX009 (ip), vehicle: saline + alcohol): 107 % of control
- T/C (dose: 1.0 mg/kg/injection, schedule: Q01DX009 (ip), vehicle: saline + alcohol): 102 % of control
- T/C (dose: 2.0 mg/kg/injection, schedule: Q01DX009 (ip), vehicle: saline + alcohol): 104 % of control
- T/C (dose: 5.0 mg/kg/injection, schedule: Q01DX009 (ip), vehicle: saline + alcohol): 113 % of control

SMILES: OC(CBr)C(O)C(O)C(O)CBr (stereo not drawn)
- T/C [1]: 111 % of control
- T/C [2]: 114 % of control
- T/C (dose: 108.0 mg/kg/injection, schedule: Q04DX005 (ip), vehicle: saline with Tween-80): 122 % of control
- T/C [3]: 114 % of control
- T/C [4]: 114 % of control
- T/C (dose: 500.0 mg/kg/injection, schedule: Q04DX005 (ip), vehicle: saline with Tween-80): 176 % of control
- T/C (dose: 800.0 mg/kg/injection, schedule: Q04DX004 (ip), vehicle: saline with Tween-80): 108 % of control
- T/C (dose: 833.0 mg/kg/injection, schedule: Q04DX005 (ip), vehicle: saline with Tween-80): 176 % of control

SMILES: NC1=NC(O)C=C1 (stereo not drawn)
- T/C (dose: 3.12 mg/kg/injection, schedule: Q01DX009 (ip), vehicle: saline): 118 % of control
- T/C (dose: 20.0 mg/kg/injection, schedule: Q01DX009 (ip), vehicle: saline): 152 % of control
- T/C (dose: 25.0 mg/kg/injection, schedule: Q01DX009 (ip), vehicle: saline): 160 % of control
- T/C (dose: 40.0 mg/kg/injection, schedule: Q01DX009 (ip), vehicle: saline): 152 % of control
- T/C (dose: 50.0 mg/kg/injection, schedule: Q01DX009 (ip), vehicle: saline): 178 % of control

SMILES: N#CC(C#N)=NNc1ccc2cn[nH]c2c1
- T/C (dose: 12.5 mg/kg/injection, schedule: Q04DX004 (ip), vehicle: Klucel (hydroxypropylcellulose) (HPC)): 105 % of control
- T/C (dose: 25.0 mg/kg/injection, schedule: Q04DX004 (ip), vehicle: Klucel (hydroxypropylcellulose) (HPC)): 95 % of control
- T/C (dose: 50.0 mg/kg/injection, schedule: Q04DX004 (ip), vehicle: Klucel (hydroxypropylcellulose) (HPC)): 90 % of control
- T/C (dose: 100.0 mg/kg/injection, schedule: Q04DX004 (ip), vehicle: Klucel (hydroxypropylcellulose) (HPC)): 103 % of control

SMILES: C[C@@](O)(/C=C/[C@H]1CC=CC(=O)O1)[C@@H](C[C@@H](O)\C=C/C=C\C=C\CO)OP(=O)(O)O
- T/C (dose: 1.0 mg/kg/injection, schedule: Q01DX009 (ip), vehicle: water): 112 % of control
- T/C (dose: 2.0 mg/kg/injection, schedule: Q01DX009 (ip), vehicle: water): 106 % of control
- T/C (dose: 4.0 mg/kg/injection, schedule: Q01DX009 (ip), vehicle: water): 98 % of control
- T/C (dose: 8.0 mg/kg/injection, schedule: Q01DX009 (ip), vehicle: water): 120 % of control

SMILES: CCC(C)C(N)C(=O)NC(CC(N)=O)C(=O)NC(CC(C)C)C(=O)NC(CCCCN)C(=O)NC(C)C(=O)NC(CC(C)C)C(=O)NC(C)C(=O)NC(C)C(=O)NC(CC(C)C)C(=O)NC(C)C(=O)NC(CCCCN)C(=O)NC(CCCCN)C(=O)NC(C(=O)NC(CC(C)C)C(N)=O)C(C)CC (stereo not drawn)
- T/C (dose: 1.56 mg/kg/injection, schedule: Q01DX009 (ip), vehicle: Klucel (hydroxypropylcellulose) (HPC)): 95 % of control
- T/C (dose: 3.12 mg/kg/injection, schedule: Q01DX009 (ip), vehicle: Klucel (hydroxypropylcellulose) (HPC)): 101 % of control
- T/C (dose: 6.25 mg/kg/injection, schedule: Q01DX009 (ip), vehicle: Klucel (hydroxypropylcellulose) (HPC)): 96 % of control
- T/C (dose: 12.5 mg/kg/injection, schedule: Q01DX009 (ip), vehicle: Klucel (hydroxypropylcellulose) (HPC)): 98 % of control

SMILES: Cc1c2ccccc2c(C)c2c1cc(C(=O)O)c1ccccc12
- T/C (dose: 25.0 mg/kg/injection, schedule: Q04DX004 (ip), vehicle: sodium bicarbonate): 109 % of control
- T/C (dose: 100.0 mg/kg/injection, schedule: Q04DX004 (ip), vehicle: sodium bicarbonate): 110 % of control
- T/C (dose: 200.0 mg/kg/injection, schedule: Q04DX004 (ip), vehicle: sodium bicarbonate): 116 % of control
- T/C (dose: 400.0 mg/kg/injection, schedule: Q04DX004 (ip), vehicle: sodium bicarbonate): 110 % of control

SMILES: CC(=O)N(C)c1ccc(Nc2cc(C)[nH]c3ccc4ncnc4c23)cc1
- T/C (dose: 5.0 mg/kg/injection, schedule: Q04DX004 (ip), vehicle: saline): 96 % of control

SMILES: CC(/C=N/N=C(N)N)=N\N=C(N)N
- T/C (dose: 32.4 mg/kg/injection, schedule: Q04DX005 (ip), vehicle: saline): 110 % of control
- T/C (dose: 54.0 mg/kg/injection, schedule: Q04DX005 (ip), vehicle: saline): 96 % of control
- T/C (dose: 90.0 mg/kg/injection, schedule: Q04DX005 (ip), vehicle: saline): 110 % of control

SMILES: O=c1n(CC2CO2)c(=O)n(CC2CO2)c(=O)n1CC1CO1 (stereo not drawn)
- T/C (dose: 13.0 mg/kg/injection, schedule: Q04DX005 (ip), vehicle: saline): 191 % of control
- T/C (dose: 21.6 mg/kg/injection, schedule: Q04DX005 (ip), vehicle: saline): 270 % of control
- T/C (dose: 36.0 mg/kg/injection, schedule: Q04DX005 (ip), vehicle: saline): 377 % of control
- T/C (dose: 60.0 mg/kg/injection, schedule: Q04DX005 (ip), vehicle: saline): 377 % of control
